Consider ten molecules from patent publication US20240216344A1, “THIAZOLIDINEDIONE ANALOGS FOR THE TREATMENT OF NAFLD AND METABOLIC DISEASES” (Cirius Therapeutics, Inc., priority 2019, published 2024).

The subject of test [1] is patients with NASH. The note with it: cited from earlier work.
Test [2] deals with patients with NASH. The note with it: cited from earlier work. This is another data set of the same source.
For test [3], the system named is patients with NASH. The test is described as follows: Meta-analysis of 17 NASH clinical trials: change from baseline in LFTs and biomarkers by study arm, composite outcome. Format: in vivo, human. The note with it: 17 NASH clinical trials. The method, then: Meta-regressions of NASH clinical trials were performed to examine associations between biomarker and histological changes within treatment groups, and to additionally examine associations between treatment effects on biomarkers and on liver histology. Trials that met the following criteria were included: • Randomized controlled clinical trial • Paired biopsies performed at baseline and follow-up, scored using the NASH CRN system.
• Published results at baseline, follow-up, or changes from baseline for any the following liver injury markers or biomarkers: alanine aminotransferase (ALT), aspartate aminotransferase (AST), alkaline phosphatase, hemoglobin A1c (HbA1c), gamma-glutamyltransferase (GGT), insulin, cytokeratin-18 (CK-18), or Enhanced Liver Fibrosis (ELF) score. Variables selected were based on variables whose change was commonly reported in multiple studies. • Changes in histological scores for ballooning, inflammation, steatosis, and fibrosis, or the pre-determined endpoints of NASH resolution without worsening fibrosis or improvement in fibrosis with no worsening of NASH.
All results from a search of PubMed for the keywords (“nonalcoholic steatohepatitis” or “non-alcoholic steatohepatitis”) and (“clinical trial” or “randomized”) and filtered for “Clinical Trial” were reviewed. EudraCT and ClinicalTrials.gov were searched for the keyword “nonalcoholic steatohepatitis” with results further filtered for phase 2 or 3, interventional, terminated or completed trials. These three sources returned 265 (PubMed), 153 (ClinicalTrials.gov), and 56 (EudraCT) results, which were each individually reviewed for inclusion in the analysis. Data extracted by one analyst from each source that included means and SDs at baseline, end of study, and changes from baseline to end of study for continuous variables were verified and corrected by a second analyst. Where SDs were not available, any provided estimate of variation was used to derive the SD where possible; a plot-digitizer program was used where data were presented in figures only. Data for dichotomous endpoints were extracted as the number of subjects with the event and corresponding sample size.
Random effects weighted least squares meta-regressions with inverse variance weighting were used to examine the association of changes in ALT, AST, CK-18, HbA1c, fasting insulin levels, ELF, alkaline phosphatase and GGT with biopsy outcomes. CK-18[M30] was measured in all studies except EMMINENCE where CK-18[M651 was reported. These associations were assessed at an individual cohort level (within treatment group), as well as based on the treatment effect. Percent change from baseline in liver injury makers and biomarkers was used as the predictor when examining the associations in the individual cohorts with outcomes while the treatment ratio, the ratio of active to placebo with respect to the relative changes from baseline, was used as the predictor when assessing the association with the treatment effect on outcomes. Standardized mean changes (mean/SD) or standardized mean treatment differences (mean difference/pooled SD) were used for continuous outcomes and Freeman-Tukey double arcsine transformed proportions or log odds ratios were used for dichotomous outcomes. Meta-regression results were computed using the metafor package available in R. P-values <0.05 were considered statistically significant.
From the meta-regression results, ranks for the association with responses and treatment effects for each histologic outcome (changes in ballooning, inflammation, steatosis, and fibrosis; NASH resolution without worsening of fibrosis, and fibrosis improvement without worsening of NAS) were assigned across seven biomarkers (AST, GGT, HbA1c, insulin, CK-18, ELF, and alkaline phosphatase) for both the slope and the mediator p-value (ranks 1-7, with 7 assigned to the biomarker with the greatest slope or lowest p-value). An average rank across all outcomes was then assigned to each biomarker. […]

The mark [4] stands for this setting: GOLDEN, 80 mg, follow-up 12 months.
The mark [5] stands for this setting: GOLDEN, 120 mg, follow-up 12 months.
Setting [6] is: GOLDEN trial, Elafibranor 120 mg.
Setting [7] is: LEUSCHNER, 23-28 mg/kg/day, follow-up 18 months.
The mark [8] stands for this setting: LEUSCHNER trial, UDCA 23-28 mg/kg/day.
The mark [9] stands for this setting: ENCORE-HF trial, Emricasan 5 mg.
[10] abbreviates: ENCORE-HF trial, Emricasan 50 mg.
[11] abbreviates: MADRIGAL, 80 mg, follow-up 9 months.
Setting [12] is: MADRIGAL trial, Resmetirom 80 mg.
Where [13] appears, read: CENTAUR, 150 mg, follow-up 12 months.
Where [14] appears, read: GEORGESCU, 80 mg, follow-up 20 months.
Setting [15] is: GEORGESCU trial, Valsartan 80 mg.
Setting [16] is: GEORGESCU, 20 mg, follow-up 20 months.
Where [17] appears, read: GEORGESCU trial, Telmisartan 20 mg.
Setting [18] is: ARREST, 400 mg, follow-up 12 months.
Where [19] appears, read: ARREST, 600 mg, follow-up 12 months.
Setting [20] is: PIVENS, Vitamin E arm, follow-up 22 months.

Read-outs that look alike come from different tables or passages of the source.

Regarding `CSc1ccc(C(=O)/C=C/c2cc(C)c(OC(C)(C)C(=O)O)c(C)c2)cc1` [Elafibranor], in the test on patients with NASH [1] (setting [4]), the “% Change from Baseline ALT” value is listed as −9.72%, the “% Change from Baseline AST” value is listed as −16.87%, the “% Change from Baseline Alk Phos” value is listed as −25.87% and the “% Change from Baseline GGT” value is reported as −34.54%. Further, in the test with patients with NASH [1] (setting [5]), the “% Change from Baseline ALT” value is on record as −19.75%, the “% Change from Baseline AST” value is −30.22%, the “% Change from Baseline Alk Phos” value is given as −26.41% and the “% Change from Baseline GGT” value is −41.68%. Further, the “NASH Resolution” value in the test with patients with NASH [2] (GOLDEN trial, Elafibranor 80 mg) is recorded as 12/93. In addition, in the test with patients with NASH [2] (setting [6]), the “Change from Baseline, mean: Ballooning” value is on record as −0.07; the “Change from Baseline, mean: Fibrosis” value is recorded as −0.07; the “Change from Baseline, mean: Inflammation” value was −0.32; the “Change from Baseline, mean: Steatosis” value was 0.02. In addition, the “NASH Resolution” value with patients with NASH [2] (setting [6]) was 17/89.

On to `C[C@H](CCC(=O)O)[C@H]1CC[C@H]2[C@@H]3[C@@H](O)C[C@@H]4C[C@H](O)CC[C@]4(C)[C@H]3CC[C@]12C` [UDCA], for which, in the test on patients with NASH [1] (setting [7]), the “% Change from Baseline ALT” value was −40.55%, the “% Change from Baseline AST” value is −27.95%, the “% Change from Baseline Alk Phos” value was −6.376% and the “% Change from Baseline GGT” value is reported as −59.94%. Moreover, in the test with patients with NASH [2] (setting [8]), the “Change from Baseline, mean: Ballooning” value is recorded as −0.16; the “Change from Baseline, mean: Inflammation” value is −0.51; the “Change from Baseline, mean: Steatosis” value is −0.55.

For the molecule `CC(C)c1cc(Oc2c(Cl)cc(-n3nc(C#N)c(=O)[nH]c3=O)cc2Cl)n[nH]c1=O` [resmetiron, reference compound], the “treatment effect on the surrogate endpoint (weighted average of changes in AST, CK-18, HbA1c)” value with patients with NASH [3] was “largest treatment effects”.

For the molecule `C[C@H](NC(=O)C(=O)Nc1ccccc1C(C)(C)C)C(=O)N[C@@H](CC(=O)O)C(=O)COc1c(F)c(F)cc(F)c1F` [Emricasan], in the test on patients with NASH [1] (ENCORE-HF, 5 mg), the “% Change from Baseline ALT” value is recorded as −35.28%, the “% Change from Baseline AST” value was −18.47% and the “% Change from Baseline CK-18” value was −36.86%. Also, in the test on patients with NASH [1] (ENCORE-HF, 50 mg), the “% Change from Baseline ALT” value is recorded as −45.17%, the “% Change from Baseline AST” value is given as −19.83% and the “% Change from Baseline CK-18” value was −45.07%. In the test with patients with NASH [2] (setting [9]), the “Change from Baseline, mean: Ballooning” value is 0.04; the “Change from Baseline, mean: Fibrosis” value was 0.41; the “Change from Baseline, mean: Inflammation” value is on record as −0.11; the “Change from Baseline, mean: Steatosis” value is on record as −0.20. In the test with patients with NASH [2] (setting [9]), the “Fibrosis Improvement” value is 12/107 and the “NASH Resolution” value is 4/107. For the same molecule, in the test with patients with NASH [2] (setting [10]), the “Change from Baseline, mean: Ballooning” value was 0.13; the “Change from Baseline, mean: Fibrosis” value is reported as 0.36; the “Change from Baseline, mean: Inflammation” value is recorded as 0.09; the “Change from Baseline, mean: Steatosis” value is −0.27. In the test on patients with NASH [2] (setting [10]), the “Fibrosis Improvement” value is recorded as 13/106 and the “NASH Resolution” value is given as 7/106.

Consider `CC(C)c1cc(Oc2c(Cl)cc(-n3nc(C#N)c(=O)[nH]c3=O)cc2Cl)n[nH]c1=O` [Resmetirom], for which, in the test on patients with NASH [1] (setting [11]), the “% Change from Baseline ALT” value is given as −30.80%, the “% Change from Baseline AST” value is recorded as −21.08%, the “% Change from Baseline Alk Phos” value is recorded as 7.85% and the “% Change from Baseline CK-18” value was −35.15%. In addition, in the test with patients with NASH [1] (setting [11]), the “% Change from Baseline ELF” value is −7.17%, the “% Change from Baseline GGT” value was −18.76% and the “% Change from Baseline HbA1c” value is recorded as 0.63%. For the same molecule, in the test on patients with NASH [2] (setting [12]), the “Fibrosis Improvement” value is 21/73 and the “NASH Resolution” value is reported as 18/73.

In the case of `CCCCOCCOc1ccc(-c2ccc3c(c2)/C=C(/C(=O)Nc2ccc([S@@+]([O-])Cc4cncn4CCC)cc2)CCCN3CC(C)C)cc1` [Cenicriviroc], in the test with patients with NASH [1] (setting [13]), the “% Change from Baseline ALT” value is given as 11.23%, the “% Change from Baseline AST” value was 11.67%, the “% Change from Baseline Alk Phos” value is recorded as 1.24% and the “% Change from Baseline CK-18” value was −12.34%. In the test with patients with NASH [1] (setting [13]), the “% Change from Baseline GGT” value was 2.68%, the “% Change from Baseline HbA1c” value is reported as −0.75% and the “% Change from Baseline Insulin” value is listed as 2.14%. Besides, in the test with patients with NASH [2] (CENTAUR trial, Cenicriviroc 150 mg), the “Fibrosis Improvement” value is on record as 29/145.

For `CCCCC(=O)N(Cc1ccc(-c2ccccc2-c2nnn[nH]2)cc1)[C@H](C(=O)O)C(C)C` [Valsartan], in the test with patients with NASH [1] (setting [14]), the “% Change from Baseline ALT” value is on record as −23.22%, the “% Change from Baseline AST” value is reported as −18.82% and the “% Change from Baseline GGT” value was −20.60%. Also, in the test with patients with NASH [2] (setting [15]), the “Change from Baseline, mean: Ballooning” value is −0.11; the “Change from Baseline, mean: Fibrosis” value was −0.31; the “Change from Baseline, mean: Inflammation” value is listed as 0.08; the “Change from Baseline, mean: Steatosis” value was −0.34.

Turning to `CCCc1nc2c(C)cc(-c3nc4ccccc4n3C)cc2n1Cc1ccc(-c2ccccc2C(=O)O)cc1` [Telmisartan], in the test with patients with NASH [1] (setting [16]), the “% Change from Baseline ALT” value is on record as −30.29%, the “% Change from Baseline AST” value is reported as −34.64% and the “% Change from Baseline GGT” value is recorded as −2.83%. In the test with patients with NASH [2] (setting [17]), the “Change from Baseline, mean: Ballooning” value is listed as −0.58; the “Change from Baseline, mean: Fibrosis” value is −0.75; the “Change from Baseline, mean: Inflammation” value is −0.36; the “Change from Baseline, mean: Steatosis” value was −0.50.

In the case of `CCCCCCCCCCCCCCCCCCCC(=O)N[C@H]1CC[C@@]2(C)[C@@H](C1)C[C@@H](O)[C@@H]1[C@@H]2C[C@H](O)[C@]2(C)[C@@H]([C@H](C)CCC(=O)O)CC[C@@H]12` [Aramachol, reference compound], the “treatment effect on the surrogate endpoint (weighted average of changes in AST, CK-18, HbA1c)” value in the test with patients with NASH [3] was “largest treatment effects”. Besides, in the test with patients with NASH [1] (setting [18]), the “% Change from Baseline ALT” value was −18.06% and the “% Change from Baseline HbA1c” value is listed as −0.62%. Further, in the test with patients with NASH [1] (setting [19]), the “% Change from Baseline ALT” value is −32.02% and the “% Change from Baseline HbA1c” value is listed as −1.79%. In the test on patients with NASH [2] (ARREST trial, Aramchol 400 mg), the “Fibrosis Improvement” value is given as 17/80 and the “NASH Resolution” value is 6/80. For the same molecule, in the test on patients with NASH [2] (ARREST trial, Aramchol 600 mg), the “Fibrosis Improvement” value is reported as 23/78 and the “NASH Resolution” value was 13/78.

With Vitamin E, in the test on patients with NASH [1] (setting [20]), the “% Change from Baseline ALT” value is on record as −43.02%, the “% Change from Baseline AST” value is recorded as −36.10%, the “% Change from Baseline Alk Phos” value is on record as −12.08% and the “% Change from Baseline GGT” value was −25.00%. The “% Change from Baseline Insulin” value in the test with patients with NASH [1] (setting [20]) is recorded as 2.73%. In the test with patients with NASH [2] (PIVENS trial, Vitamin E), the “Change from Baseline, mean: Ballooning” value is recorded as −0.30; the “Change from Baseline, mean: Fibrosis” value was −0.30; the “Change from Baseline, mean: Inflammation” value is −0.60; the “Change from Baseline, mean: Steatosis” value is given as −0.70. Also, the “NASH Resolution” value with patients with NASH [2] (PIVENS trial, Vitamin E) was 30/84.
